Measured values published in patent publication US6693128B2, “Substituted dicinnamoylquinides and their use in augmentation of adenonsine function” (Vanderbilt University, priority 2001, dated 2004).

Legend:
[1] = target: T1, human adenosine transporter (Homo sapiens, UniProt Q99808); assay: Displacement of [3H]NBTI binding in U-937 cell homogenates; details: mean ± SEM; for Ki: [3H]NBTI 2-4 nM, 50 mM TRIS pH 7.5, 4° C., 1.5 h, Cheng-Prusoff, read-out: Affinity (Ki μM); for Hill slope: log-logit analysis of competition binding data
T1 construct: homogenates of U-937 cell culture (American Tissue Culture Compository), expressing the human (es) transporter; endogenous in cells; host or cells: U-937 (human) cell membrane homogenates
T1 sequence (Q99808 1-456): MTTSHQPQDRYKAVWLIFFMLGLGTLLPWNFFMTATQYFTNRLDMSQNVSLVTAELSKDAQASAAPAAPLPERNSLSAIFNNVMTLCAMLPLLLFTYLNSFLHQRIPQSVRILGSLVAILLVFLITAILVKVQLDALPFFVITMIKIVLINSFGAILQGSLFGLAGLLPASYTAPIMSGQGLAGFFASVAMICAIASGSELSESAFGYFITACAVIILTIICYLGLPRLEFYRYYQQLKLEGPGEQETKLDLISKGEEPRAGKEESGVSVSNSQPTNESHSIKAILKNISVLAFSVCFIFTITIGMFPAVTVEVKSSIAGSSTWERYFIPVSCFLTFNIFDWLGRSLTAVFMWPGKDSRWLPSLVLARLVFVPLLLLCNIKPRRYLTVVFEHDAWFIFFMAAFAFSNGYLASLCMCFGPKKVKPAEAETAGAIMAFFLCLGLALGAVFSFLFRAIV
Method: Neurochem 39, 184-191 (1982), incorporated herein by reference. The cell membranes in final concentration of 0.03 mg protein/mL are incubated with [^3H]NBTI at 2-4 nM concentration in 50 mM TRIS buffer (pH 7.5) at 4° C. for 1.5 h in a total volume of 1.0 mL. Nonspecific binding is defined with 10 μM NBTI. Each determination is carried out in triplicate. Bound and free [^3H]NBTI are separated by vacuum filtration through fiberglass filters (Schleicher & Schuell, Keene, N.H.) that are presoaked with 0.3% polyethylenimine for 10 min, using a Brandel […] cell harvester. The filters are washed three times for 10 s with ice-cold 50 mM TRIS buffer and placed in 10 mL scintillation fluid (Cytoscint, ICN). Beta spectrometry is performed using a Beckman […] instrument at 47% counting efficiency. IC50 values and Hill slopes (nH) are calculated from log-logit analysis of competition binding data. Ki values of the competing ligand are calculated from IC50 values using the Cheng-Prusoff equation, Ki=IC50/(1+L/KD) […] Data are expressed as mean±standard error of the mean (SEM).

human (es) transporter = target: T2, human (es) transporter (Homo sapiens, UniProt Q99808); assay: Inhibition of [3H]adenosine transport in homogenates of U-937 cell culture; format: biochemical; details: 10 μM [3H]adenosine; U-937 cell homogenates; HEPES buffer, 37° C., 30 min; read-out: inhibitory constant Ki, transport of [3H]adenosine
T2 construct: homogenates of U-937 cell culture (American Tissue Culture Compository), expressing the human (es) transporter; endogenous in cells; host or cells: U-937 (human) cell membrane homogenates
T2 sequence (Q99808 1-456): T1 sequence (Q99808 1-456)
Method: Inhibition of [^3H]adenosine transport in homogenates of U-937 cell culture (American Tissue Culture Compository), expressing the human (es) transporter is performed according to Gu et al, J. Neurochem 67, 972-977 (1996), which is incorporated herein by reference. Rate of transport is determined in HEPES buffer at 37° C. for 30 min (with choline replacing sodium). Full displacement curves for the adenosine transporter are obtained by using 8 concentrations of each compound, increasing by a factor of 2 and ranging from 0.25 μM-32 μM. Nonspecific transport is defined with 1 μM NBTI ((S)-(4-nitrobenzyl)-6-thioinosine). Cell cultures are grown in high glucose Dulbecco's modified Eagle's medium supplemented with NaHCO3 (40 mM), 10% fetal bovine serum (Gibco), 400 mg/L geneticin, and 0.1 mM hypoxanthine.
Briefly, the cells are cultured at 37° C. under a CO2/air (5/95, v/v) in tissue culture flasks (75 cm^2, Falcon). When reaching confluency (70-80%), cells are trypsinized and harvested by centrifugation. Harvested cells are re-suspended in 50 mM TRIS buffer at 4° C. (0.1 mg/mL), the cell membranes are disrupted by Polytron homogenization (12,500 rpm for 25 s), and the suspension is centrifuged at 30,000×g for 60 min. The supernatent is discarded and remaining the pellet is resuspended in 50 mM TRIS buffer to 0.2 mg-0.5 mg protein/mL and frozen at −80° C. until used. […]

Ki [1]	Hill slope [1]	melting point	Ki (human (es) transporter)	Compound
1.3 µM	1.12 ± 0.00	172 °C		O=C(C=Cc1ccc(Cl)cc1)OC1CC2(O)CC(OC2=O)C1OC(=O)C=Cc1ccc(Cl)cc1 (stereo not drawn) [3,4-di(4-chlorocinnamoyl)-1,5-quinide]
2.4 ± 0.7 µM	1.00 ± 0.03			O=C(C=Cc1ccc(O)c(O)c1)OC1CC2(O)CC(OC2=O)C1OC(=O)C=Cc1ccc(O)c(O)c1 (stereo not drawn) [3,4-dicaffeoyl-1,5-quinide]
0.96 ± 0.07 µM	1.22 ± 0.11	233 to 235 °C		O=C(C=Cc1ccc(O)cc1)OC1CC2(O)CC(OC2=O)C1OC(=O)C=Cc1ccc(O)cc1 (stereo not drawn) [3,4-dicoumaroyl-1,5-quinide]
0.96 ± 0.13 µM	0.94 ± 0.02	142 to 144 °C	1200 nM	COc1cc(C=CC(=O)OC2CC3(O)CC(OC3=O)C2OC(=O)C=Cc2ccc(O)c(OC)c2)ccc1O (stereo not drawn) [3,4-diferuloyl-1,5-quinide]
